85 molecules from PubChem BioAssay AID489006 (Sanford-Burnham Center for Chemical Genomics, 2010) can be followed below.

Calls of active or inactive are those of the source. How the calls were made is not given here.

This assay concerns Jurkat NF-kB reporter, luminescence. Nature of the assay: NF-kB reporter inhibition in Jurkat cells, dose response, selectivity assay for B-cell receptor NF-kB inhibitor project, cell-based, luminescence (AID 489006).

Usually IC50 stands for the midpoint of a concentration-inhibition curve. As for `Cc1ccc(-n2c(-c3ccccc3)c[n+]3c2CCc2ccccc2-3)c(C)c1`, the concentration for half-maximal inhibition (IC50) is 12.5 µM.

Regarding `CC(C)Oc1ccc(C(=O)Nc2ccc(N(C)C)cc2)cc1`, the IC50 was > 80 µM (inactive).

In the case of `Cc1ccc(NC(=O)O/N=C/c2c(C)nn(C(C)(C)C)c2C)cc1Cl`, the IC50 is less than 0.16 µM.

Turning to `CCc1sc(C(=O)Nc2cccc(-n3cnnn3)c2)cc1C`, the IC50 is > 80 µM (inactive).

Regarding `CCOc1ccc(NC(=O)CCCc2cc(-c3ccc(OCC)cc3)on2)cc1`, the IC50 was > 80 µM (inactive).

With `COc1ccc(S(=O)(=O)Nc2cc3c(C(C)=O)c(C)oc3c3ccccc23)cc1`, the IC50 was > 80 µM (inactive).

As to `CCC(C)NC(=O)c1c(N)n(/N=C/c2ccccn2)c2nc3ccccc3nc12` (stereo not given), the IC50 was 22.7 µM (inactive).

On to `O=C(CCCN1C(=O)/C(=C/c2ccccc2Cl)SC1=S)Nc1ccccn1`, for which the 50% inhibitory concentration (IC50) is 9.52 µM.

In the case of `C=CCn1c(O)c(C(C)=NC(C)c2ccccc2)c(=O)[nH]c1=O` (stereo not given), the IC50 was > 80 µM (inactive).

Consider `Cc1nc2cc(-c3ccccc3)nn2c(C)c1CCC(=O)NCc1ccco1`, for which the IC50 is > 80 µM (inactive).

On to `Cn1c(=O)cc(SCC(=O)N2CCCC2)c2cc(Cl)ccc21`, for which the IC50 is > 80 µM (inactive).

With `CCCOc1ccc(NC(=O)C(=O)NCCCn2ccnc2)cc1`, the IC50 is > 80 µM (inactive).

As to `Cc1ccc(-c2nn3c(C)nnc3c3ccccc23)cc1S(=O)(=O)N1CCN(CCO)CC1`, the IC50 is 43.4 µM (inactive).

For the molecule `COc1ccc(NS(=O)(=O)c2ccc(-c3coc(C)n3)cc2)cc1OC`, the IC50 was > 80 µM (inactive).

Regarding `CCN(CC(=O)Nc1c(F)cccc1F)C(=O)c1cc(S(=O)(=O)N(C)C)ccc1N1CCCC1`, the IC50 is > 80 µM (inactive).

Turning to `COc1ccc(OC)c(NC(=O)c2[nH]c(C)c(C(C)=O)c2C)c1`, the IC50 was > 80 µM (inactive).

As for `NC(=S)N=Nc1c(O)n(Cc2ccccc2)c2ccccc12`, the IC50 was 23.9 µM (inactive).

As to `CCn1c(=O)cc(OCC(=O)N(C)C2CCCCC2)c2ccccc21`, the IC50 was > 80 µM (inactive).

For `COc1ccc(-c2ccc(OC)c([C@H]3[C@H]4C=CC[C@@H](C)[C@@H]4C(=O)N3Cc3ccccc3)c2)cc1`, the IC50 is 35.7 µM (inactive).

For `CNC(=O)c1cccn(Cc2ccc(C(F)(F)F)cc2)c1=O`, the IC50 was 20.9 µM (inactive).

Consider `COC(=O)c1cc(NC(=O)Nc2cc(OC)ccc2OC)cc(C(=O)OC)c1`, for which the IC50 is 63.8 µM (inactive).

As to `CCC(=O)N1c2ccccc2[C@@H](N(C(C)=O)c2ccccc2)C[C@H]1C`, the IC50 is 57 µM (inactive).

Take `Cc1noc(C)c1CSc1nc2[nH]ncc2c(=O)n1-c1ccccc1`: the IC50 is 34.3 µM (inactive).

As for `CCOCCCNc1nc2c(C)cccn2c(=O)c1/C=C1\SC(=S)N(C(C)CC)C1=O` (stereo not given), the IC50 is > 80 µM (inactive).

For the molecule `C(=N\Nc1nc(Nc2ccccc2)nc(Nc2ccccc2)n1)/c1cccnc1`, the IC50 is > 80 µM (inactive).

For `CC(C)C(c1nnnn1Cc1ccccc1)N(Cc1ccco1)Cc1cccs1` (stereo not given), the IC50 is 73.6 µM (inactive).

For the molecule `Cn1c(=O)cc(Nc2ccccc2)c2c(=O)n(-c3ccccc3)c(=O)n(-c3ccccc3)c21`, the IC50 was 71.9 µM (inactive).

On to `COc1ccc(C=C(C(C)=O)C(C)=O)cc1OC`, for which the IC50 was 6.23 µM.

On to `CCOc1ccc(-c2noc(CCC(=O)O)n2)cc1`, for which the 50% inhibitory concentration (IC50) was 0.7 µM.

For `Fc1ccc(C2=Nn3c(nnc3-c3n[nH]c4c3CCC4)SC2)cc1`, the IC50 was > 80 µM (inactive).

For the molecule `CCOC(=O)c1sc(NC(=O)c2cc(-c3ccccc3C)nc3ccccc23)c(C#N)c1C`, the IC50 was > 80 µM (inactive).

Consider `COc1ccc(-c2noc(N3CCC(C(=O)Nc4cccc(OC)c4)CC3)n2)cc1`, for which the IC50 is > 80 µM (inactive).

For the molecule `CCc1ccc2nc(Nc3nc(COC)cc(=O)[nH]3)nc(C)c2c1`, the IC50 was > 80 µM (inactive).

For `CCn1c(=O)c2cc(C(=O)NC(C)C)sc2c2ccccc21`, the IC50 was > 80 µM (inactive).

`O=C(Nc1nc2nc(-c3ccccc3)cc(-c3ccccc3)n2n1)c1ccco1`: the IC50 is 12 µM.

As for `O=C1CCCc2c1[nH]c1ccc(CN3CCCCC3)cc21`, the IC50 was > 80 µM (inactive).

Consider `COc1cc(OC)cc(-c2cc3nc(C)c(CCC(=O)Nc4nc(C)cs4)c(C)n3n2)c1`, for which the concentration for half-maximal inhibition (IC50) was 5.28 µM.

Turning to `Cc1ccccc1Nc1nc(Cl)c(C=O)s1`, the IC50 is > 80 µM (inactive).

In the case of `CCOC(=O)Cc1ccc(NC(=O)c2ccc(C(C)(C)C)cc2)cc1`, the half-inhibitory concentration (IC50) was 0.25 µM.

As for `COC(=O)[C@@]12OC[C@]34[C@H]([C@@H](O)[C@@H]1O)[C@@]1(C)C(=O)C(O[C@@H]5OC(CO)[C@@H](O)[C@@H](O)[C@@H]5O)=C[C@@H](C)[C@@H]1C[C@H]3OC(=O)[C@H](OC(=O)/C=C(\C)C(C)(C)OC(C)=O)[C@@H]24` (stereo not given in full), the half-maximal inhibitory concentration (IC50) is 0.82 µM.

For `Cc1ccc(Sc2cc(NCCCO)c([N+](=O)[O-])c3nonc23)cc1`, the IC50 is > 80 µM (inactive).

Take `CC(C)C[C@@H](N)c1nnc(SCC(=O)c2ccc(Cl)cc2)o1`: the IC50 was 11.3 µM.

Turning to `COc1cc(OC)cc(-c2cc3nc(C)c(CCC(=O)NCc4ccccc4)c(C)n3n2)c1`, the IC50 was 2.75 µM.

For `O=S(=O)(NCc1ccncc1)c1ccc(Br)s1`, the IC50 was > 80 µM (inactive).

On to `COC(=O)C(C)Oc1cc(C)cc2oc(=O)c3c(c12)CCC3` (stereo not given), for which the IC50 was 49.9 µM (inactive).

On to `CCN1CCN(C(=O)CSc2cc(=O)n(CC)c3ccccc23)CC1`, for which the IC50 was > 80 µM (inactive).

In the case of `CCOc1ccc(-c2c[n+]3c(n2-c2ccccc2)CCCCC3)cc1`, the IC50 is > 80 µM (inactive).

With `Cc1nc2ccccn2c1C(=O)/C=C/c1cccc([N+](=O)[O-])c1`, the IC50 is 4.57 µM.

As for `Cc1cc(C)c(CN2CCN(C(=O)Cn3cnc4c(NCc5ccccc5)ncnc43)CC2)c(C)c1`, the IC50 was 69.9 µM (inactive).

In the case of `CC(C)[C@H](N)c1nnc(SCC(=O)c2ccc(Cl)cc2)o1`, the IC50 is > 80 µM (inactive).

For `COc1ccc(C(=O)Nc2ccc(OC)c([N+](=O)[O-])c2)cc1Br`, the IC50 is > 80 µM (inactive).

Take `O=C(CN1C(=O)c2ccccc2S1(=O)=O)c1ccc(OC(F)F)cc1`: the IC50 is 3.15 µM.

As to `COc1cc(C[C@@H]2C(=O)OC[C@H]2Cc2ccc(OC)c(OC)c2)ccc1O`, the IC50 was > 80 µM (inactive).

`Cc1ccc(O)c(NC(=O)COc2cc(C)ccc2C)c1`: the IC50 is > 80 µM (inactive).

Consider `O=C1NC[C@H](c2ccccc2)OC(=O)[C@@H](Cc2ccc(F)cc2)C/C=C\C[C@H]1CC(=O)N(CCO)Cc1ccccc1`, for which the IC50 was 11.8 µM.

Regarding `CC(=O)C1=NN(c2ccccc2)C(c2cccs2)N1c1ccc(N(C)C)cc1` (stereo not given), the IC50 is > 80 µM (inactive).

With `Cc1ccccc1-n1c(SCc2c(C)noc2C)nnc1-c1c[nH]c2ccccc12`, the IC50 is > 80 µM (inactive).

Take `CC1=CC(C)(C)Nc2ccc(OC(=O)C(Cc3ccccc3)N3C(=O)c4ccccc4C3=O)cc21` (stereo not given): the IC50 is 7.32 µM.

On to `COC(=O)c1c(-c2ccc(N(C)C)cc2)sc2ccc(OC)cc12`, for which the IC50 was > 80 µM (inactive).

For `CN1C(=O)c2cccc3c(S(=O)(=O)Nc4ccccc4F)ccc1c23`, the IC50 is 35.8 µM (inactive).

With `Cc1c(CCC(=O)NCCCn2ccnc2)c(=O)oc2c(C)c3oc4c(c3cc12)CCCC4`, the half-maximal inhibitory concentration (IC50) is 11 µM.

As for `CC(C)(C)c1ccc(-c2noc(CCC(=O)NCc3ccco3)n2)cc1`, the IC50 is 1.13 µM.

As to `O=C(CCCN1C(=O)/C(=C/c2ccccc2Cl)SC1=S)NNC(=O)c1ccc(Cl)cc1Cl`, the half-inhibitory concentration (IC50) is 0.76 µM.

As to `Cc1nn(C)c(C)c1CN(C)S(=O)(=O)c1ccc2ccccc2c1`, the IC50 was > 80 µM (inactive).

For `N=c1ccn(Cc2ccccc2Cl)cc1`, the IC50 was > 80 µM (inactive).

In the case of `O=c1c(C=NCCCO)c(-c2ccccc2)[nH]n1-c1nc2ccccc2s1`, the IC50 is 3.46 µM.

On to `Cn1c(=O)cc(OCCCC(=O)N2CCCCC2)c2ccccc21`, for which the IC50 was > 80 µM (inactive).

For `CC(C)c1[nH]nc2c1C(c1ccco1)C(C#N)=C(N)O2` (stereo not given), the IC50 was 40 µM (inactive).

For the molecule `CCCc1nc2c(C)cc(-c3nc4ccccc4n3C)cc2n1Cc1ccc(-c2ccccc2C(=O)O)cc1`, the IC50 is > 80 µM (inactive).

Regarding `Cn1nc(-c2ccc(N3CCOCC3)c(NS(=O)(=O)c3ccccc3)c2)c2ccccc2c1=O`, the IC50 is > 80 µM (inactive).

In the case of `CCOc1ccc(-n2c(SCC(=O)Nc3ccc4c(c3)OCCO4)nc3c(c2=O)SCC3)cc1`, the IC50 was > 80 µM (inactive).

As for `COc1cc(Br)c(C(=O)c2nccc3cc(OC)c(OC)cc23)cc1OC`, the IC50 was > 80 µM (inactive).

For the molecule `Cc1cc(C)cc(NC(=O)Nc2ccc(NC(=O)c3ccccc3O)cc2)c1`, the IC50 is > 80 µM (inactive).

`C=C(C)[C@@H]1CCC2(C(=O)O)CC[C@]3(C)[C@H](CC[C@@H]4[C@@]5(C)CCC(=O)C(C)(C)[C@@H]5CC[C@]43C)[C@@H]12` (stereo not given in full): the IC50 is > 80 µM (inactive).

Turning to `COc1ccc(C(C(=O)NC2CCCCC2)N(C(=O)CCl)c2ccc(Cl)cc2)cc1` (stereo not given), the IC50 is 0.47 µM.

With `COc1cccc(/C=C2\SC(=S)N(CCCC(=O)NC3=NCCS3)C2=O)c1`, the IC50 was 25.9 µM (inactive).

For `O=C(CN1C(=O)c2ccccc2S1(=O)=O)c1ccc(Cl)cc1Cl`, the IC50 is 0.78 µM.

Turning to `CCc1ccc(/C=C2\SC(=S)N(CCC(=O)NC3=NCCS3)C2=O)cc1`, the IC50 was 1.3 µM.

`COc1ccc(NC(=O)c2nnn(Cc3cccc(F)c3)c2N)c(OC)c1`: the IC50 is > 80 µM (inactive).

In the case of `Cc1c(NC(=O)/C=C/c2cn(-c3ccccc3)nc2-c2ccccc2)c(=O)n(-c2ccccc2)n1C`, the IC50 is > 80 µM (inactive).

Turning to `CCN1C(=O)c2cccc3c(S(=O)(=O)Nc4ccccn4)ccc1c23`, the IC50 is 40.5 µM (inactive).

In the case of `Cn1c(=O)n(C)c2cc(C(=O)Nc3ccc4c(c3)OCO4)ccc21`, the IC50 was > 80 µM (inactive).

As for `Cc1[nH]c2ccccc2c1/C=N/Nc1nc(Nc2ccccc2)nc(N2CCOCC2)n1`, the IC50 is 35.2 µM (inactive).

With `CCOc1ccc(-c2nc(CSCC(=O)NC3CC3)c(C)o2)cc1`, the IC50 was > 80 µM (inactive).

For the molecule `CN(C)C(=O)CCc1nc(-c2ccc(C(C)(C)C)cc2)no1`, the IC50 is > 80 µM (inactive).
